Experimental data as given in ChEMBL document CHEMBL3994622, “Design and synthesis of new RAF kinase-inhibiting antiproliferative quinoline derivatives. Part 2: Diarylurea derivatives” (Eur J Med Chem, 2017).

How the values were obtained:
OVCAR-5 = assay: Growth inhibition of human OVCAR5 cells incubated for 48 hrs by sulforhodamine B assay; format: functional; details: OVCAR-5, 48 h; for CC50: read-out: LC50 (the source's name)
MOLT-4 = assay: Growth inhibition of human MOLT4 cells incubated for 48 hrs by sulforhodamine B assay; format: functional; details: MOLT-4, 48 h
NCI/ADR-RES = assay: Growth inhibition of human NCI/ADR-RES cells incubated for 48 hrs by sulforhodamine B assay; format: functional; details: for CC50: read-out: LC50 (the source's name)
K562 = assay: Growth inhibition of human K562 cells incubated for 48 hrs by sulforhodamine B assay; format: functional; details: K562, 48 h
HOP-62 = assay: Growth inhibition of human HOP62 cells incubated for 48 hrs by sulforhodamine B assay; format: functional; details: HOP-62, 48 h; for CC50: read-out: LC50 (the source's name)
OVCAR-8 = assay: Growth inhibition of human OVCAR8 cells incubated for 48 hrs by sulforhodamine B assay; format: functional; details: OVCAR-8, 48 h; for CC50: read-out: LC50 (the source's name)
SN12C = assay: Growth inhibition of human SN12C cells incubated for 48 hrs by sulforhodamine B assay; format: functional; details: for CC50: read-out: LC50 (the source's name)
SK-MEL-5 = assay: Growth inhibition of human SK-MEL-5 cells incubated for 48 hrs by sulforhodamine B assay; format: functional; details: SK-MEL-5, 48 h; for CC50: read-out: LC50 (the source's name)
[1] = molecular target: RAF proto-oncogene serine/threonine-protein kinase (Homo sapiens, UniProt P04049); assay: Inhibition of human c-RAF at 10 uM using MEK1 as substrate in presence of [33P]ATP by Hotspot assay relative to control
HCT-116 = assay: Growth inhibition of human HCT116 cells incubated for 48 hrs by sulforhodamine B assay; format: functional; details: HCT-116, 48 h
SK-OV-3 = assay: Growth inhibition of human SKOV3 cells incubated for 48 hrs by sulforhodamine B assay; format: functional; details: SK-OV-3, 48 h; for CC50: read-out: LC50 (the source's name)
A549 = assay: Growth inhibition of human A549/ATCC cells incubated for 48 hrs by sulforhodamine B assay; format: functional; details: A549, 48 h; for CC50: read-out: LC50 (the source's name)
UACC-62 = assay: Growth inhibition of human UACC62 cells incubated for 48 hrs by sulforhodamine B assay; format: functional; details: UACC-62, 48 h; for CC50: read-out: LC50 (the source's name)
SNB-75 = assay: Growth inhibition of human SNB75 cells incubated for 48 hrs by sulforhodamine B assay; format: functional; details: SNB-75, 48 h; for CC50: read-out: LC50 (the source's name)
RXF 393 = assay: Growth inhibition of human RXF393 cells incubated for 48 hrs by sulforhodamine B assay; format: functional; details: RXF 393, 48 h; for CC50: read-out: LC50 (the source's name)
SK-MEL-28 = assay: Growth inhibition of human SK-MEL-28 cells incubated for 48 hrs by sulforhodamine B assay; format: functional; details: SK-MEL-28, 48 h; for CC50: read-out: LC50 (the source's name)
HCT-15 = assay: Growth inhibition of human HCT15 cells incubated for 48 hrs by sulforhodamine B assay; format: functional; details: HCT-15, 48 h
ACHN = assay: Growth inhibition of human ACHN cells incubated for 48 hrs by sulforhodamine B assay; format: functional; details: for CC50: read-out: LC50 (the source's name)
SR = assay: Growth inhibition of human SR cells incubated for 48 hrs by sulforhodamine B assay; format: functional; details: for CC50: read-out: LC50 (the source's name)
SF-268 = assay: Growth inhibition of human SF268 cells incubated for 48 hrs by sulforhodamine B assay; format: functional; details: SF-268, 48 h
RPMI-8226 = assay: Growth inhibition of human RPMI8226 cells incubated for 48 hrs by sulforhodamine B assay; format: functional; details: RPMI-8226, 48 h
BT-549 = assay: Growth inhibition of human BT549 cells incubated for 48 hrs by sulforhodamine B assay; format: functional; details: BT-549, 48 h; for CC50: read-out: LC50 (the source's name)
MCF7 = assay: Growth inhibition of human MCF7 cells incubated for 48 hrs by sulforhodamine B assay; format: functional; details: MCF7, 48 h; for CC50: read-out: LC50 (the source's name)
NCI-H226 = assay: Growth inhibition of human NCI-H226 cells incubated for 48 hrs by sulforhodamine B assay; format: functional; details: NCI-H226, 48 h; for CC50: read-out: LC50 (the source's name)
NCI-H322M = assay: Growth inhibition of human NCI-H322M cells incubated for 48 hrs by sulforhodamine B assay; format: functional; details: for CC50: read-out: LC50 (the source's name)
NCI-H522 = assay: Growth inhibition of human NCI-H522 cells incubated for 48 hrs by sulforhodamine B assay; format: functional; details: NCI-H522, 48 h; for CC50: read-out: LC50 (the source's name)
SK-MEL-2 = assay: Growth inhibition of human SK-MEL-2 cells incubated for 48 hrs by sulforhodamine B assay; format: functional; details: SK-MEL-2, 48 h; for CC50: read-out: LC50 (the source's name)
HOP-92 = assay: Growth inhibition of human HOP92 cells incubated for 48 hrs by sulforhodamine B assay; format: functional; details: HOP-92, 48 h
MDA-MB-435 = assay: Growth inhibition of human MDA-MB-435 cells incubated for 48 hrs by sulforhodamine B assay; format: functional; details: MDA-MB-435, 48 h; for CC50: read-out: LC50 (the source's name)
NCI-H23 = assay: Growth inhibition of human NCI-H23 cells incubated for 48 hrs by sulforhodamine B assay; format: functional; details: NCI-H23, 48 h; for CC50: read-out: LC50 (the source's name)
Malme-3M = assay: Growth inhibition of human MALME-3M cells incubated for 48 hrs by sulforhodamine B assay; format: functional; details: for CC50: read-out: LC50 (the source's name)
CCRF-CEM = assay: Growth inhibition of human CCRF-CEM cells incubated for 48 hrs by sulforhodamine B assay; format: functional

Chain of RAF proto-oncogene serine/threonine-protein kinase (P04049 whole entry): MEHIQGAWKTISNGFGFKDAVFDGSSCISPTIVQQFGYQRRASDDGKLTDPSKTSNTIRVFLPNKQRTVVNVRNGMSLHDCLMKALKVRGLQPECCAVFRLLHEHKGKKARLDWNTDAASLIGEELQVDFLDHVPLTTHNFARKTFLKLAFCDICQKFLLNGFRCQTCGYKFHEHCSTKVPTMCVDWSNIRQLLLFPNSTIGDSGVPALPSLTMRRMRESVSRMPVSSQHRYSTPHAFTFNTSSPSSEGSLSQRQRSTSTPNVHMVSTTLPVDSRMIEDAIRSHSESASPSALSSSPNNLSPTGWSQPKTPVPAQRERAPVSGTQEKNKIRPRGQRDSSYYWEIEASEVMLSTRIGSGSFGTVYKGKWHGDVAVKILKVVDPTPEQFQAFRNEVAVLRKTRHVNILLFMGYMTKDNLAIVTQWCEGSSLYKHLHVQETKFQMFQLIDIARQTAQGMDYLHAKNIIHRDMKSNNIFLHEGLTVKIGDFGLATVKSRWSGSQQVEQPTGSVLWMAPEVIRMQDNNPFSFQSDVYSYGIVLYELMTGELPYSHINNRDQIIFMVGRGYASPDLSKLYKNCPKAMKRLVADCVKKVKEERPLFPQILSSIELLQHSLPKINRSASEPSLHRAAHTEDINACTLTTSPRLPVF

## COc1cc2cc(Oc3ccc(NC(=O)Nc4cccc(C(F)(F)F)c4)cc3)c(C)nc2cc1OC
OVCAR-5
  GI50: 3.02 µM
  TGI: 13 µM
  CC50: > 50 µM
MOLT-4
  GI50: 1.55 µM
  LC50: > 50 µM
  TGI: 6.87 µM
NCI/ADR-RES
  GI50: 1.71 µM
  TGI: 7.19 µM
  CC50: 40 µM
K562
  GI50: 1.73 µM
  LC50 (concentration killing 50% of cells): > 50 µM
  TGI: 14 µM
HOP-62
  GI50: 2.33 µM
  TGI: 8.44 µM
  CC50: 24.1 µM
OVCAR-8
  GI50: 1.71 µM
  TGI: 6.28 µM
  CC50: 19.9 µM
SN12C
  GI50: 2.06 µM
  TGI: 16.3 µM
  CC50: > 50 µM
SK-MEL-5
  GI50: 1.08 µM
  TGI: 2.66 µM
  CC50: 8.47 µM
[1]
  inhibition: 99.2%
HCT-116
  GI50: 1.46 µM
  LC50 (50% lethal concentration): 20.4 µM
  TGI: 5.84 µM
SK-OV-3
  GI50: 2.06 µM
  TGI: 10.6 µM
  CC50: > 50 µM
A549
  GI50: 1.47 µM
  TGI: 6.49 µM
  CC50: 26.6 µM
UACC-62
  GI50: 1.84 µM
  TGI: 10.9 µM
  CC50: > 50 µM
SNB-75
  GI50: 1.17 µM
  TGI: 6.18 µM
  CC50: > 50 µM
RXF 393
  GI50: 1.63 µM
  TGI: 4.97 µM
  CC50: 26.3 µM
SK-MEL-28
  GI50: 1.97 µM
  TGI: 8.37 µM
  CC50: 28.2 µM
HCT-15
  GI50: 1.85 µM
  LC50 (lethal concentration, 50% net cell kill): > 50 µM
  TGI: 22.2 µM
ACHN
  GI50: 1.64 µM
  TGI: 7.71 µM
  CC50: > 50 µM
SR
  GI50: 1.17 µM
  TGI: 3.33 µM
  CC50: 32 µM
SF-268
  GI50: 2.57 µM
  LC50 (50% lethal concentration): > 50 µM
  TGI: 15.5 µM
RPMI-8226
  GI50: 1.05 µM
  LC50 (lethal concentration, 50% cell kill): > 50 µM
  TGI: 2.96 µM
BT-549
  GI50: 1.43 µM
  TGI: 6.18 µM
  CC50: 28.2 µM
MCF7
  GI50: 1.34 µM
  TGI: 5.43 µM
  CC50: 18.9 µM
NCI-H226
  GI50: 1.8 µM
  TGI: 5.6 µM
  CC50: 28.8 µM
NCI-H322M
  GI50: 2.84 µM
  TGI: 16.6 µM
  CC50: > 50 µM
NCI-H522
  GI50: 1.32 µM
  TGI: 4.49 µM
  CC50: 32.4 µM
SK-MEL-2
  GI50: 1.28 µM
  TGI: 2.87 µM
  CC50: 9.93 µM
HOP-92
  GI50: 1.26 µM
  LC50: 21.2 µM
  TGI: 3.96 µM
MDA-MB-435
  GI50: 1.63 µM
  TGI: 10.1 µM
  CC50: > 50 µM
NCI-H23
  GI50: 1.7 µM
  TGI: 7.41 µM
  CC50: > 50 µM
Malme-3M
  GI50: 1.71 µM
  TGI: 4.9 µM
  CC50: 33.8 µM

## Cc1nc2cc(O)c(O)cc2cc1Oc1ccc(NC(=O)Nc2ccc(Cl)c(Cl)c2)cc1
OVCAR-5
  GI50: 11.6 µM
  TGI: 29.3 µM
  CC50: > 32.5 µM
MOLT-4
  GI50: 8.87 µM
  LC50: > 32.5 µM
  TGI: > 32.5 µM
NCI/ADR-RES
  GI50: 8.74 µM
  TGI: > 32.5 µM
  CC50: > 32.5 µM
K562
  GI50: 6.93 µM
  LC50 (concentration killing 50% of cells): > 32.5 µM
  TGI: 29.6 µM
HOP-62
  GI50: 8.62 µM
  TGI: > 32.5 µM
  CC50: > 32.5 µM
OVCAR-8
  GI50: 5.77 µM
  TGI: > 32.5 µM
  CC50: > 32.5 µM
SN12C
  GI50: 8.97 µM
  TGI: 30.3 µM
  CC50: > 32.5 µM
SK-MEL-5
  GI50: 5.94 µM
  TGI: 14.2 µM
  CC50: > 32.5 µM
HCT-116
  GI50: 2.24 µM
  LC50 (50% lethal concentration): > 32.5 µM
  TGI: 13.6 µM
SK-OV-3
  GI50: 11.7 µM
  TGI: > 32.5 µM
  CC50: > 32.5 µM
CCRF-CEM
  GI50: 6.19 µM
  TGI: 21.8 µM
CCRF-CEM; read-out: LC50 (the source's name)
  CC50: > 32.5 µM
A549
  GI50: 8.99 µM
  TGI: 26.2 µM
  CC50: > 32.5 µM
UACC-62
  GI50: 5.67 µM
  TGI: 11.2 µM
  CC50: 22.1 µM
SNB-75
  GI50: 7.73 µM
  TGI: 28.9 µM
  CC50: > 32.5 µM
RXF 393
  GI50: 9.24 µM
  TGI: > 32.5 µM
  CC50: > 32.5 µM
SK-MEL-28
  GI50: 9 µM
  TGI: 30.1 µM
  CC50: > 32.5 µM
HCT-15
  GI50: 5.47 µM
  LC50 (lethal concentration, 50% net cell kill): > 32.5 µM
  TGI: > 32.5 µM
ACHN
  GI50: 3.37 µM
  TGI: 17.9 µM
  CC50: > 32.5 µM
SR
  GI50: 1.56 µM
  TGI: 12.3 µM
  CC50: > 32.5 µM
SF-268
  GI50: 8.45 µM
  LC50 (50% lethal concentration): > 32.5 µM
  TGI: > 32.5 µM
RPMI-8226
  GI50: 7.62 µM
  LC50 (lethal concentration, 50% cell kill): > 32.5 µM
  TGI: 20.7 µM
BT-549
  GI50: 7.5 µM
  TGI: > 32.5 µM
  CC50: > 32.5 µM
MCF7
  GI50: 8.7 µM
  TGI: > 32.5 µM
  CC50: > 32.5 µM
NCI-H226
  GI50: 11.8 µM
  TGI: > 32.5 µM
  CC50: > 32.5 µM
NCI-H322M
  GI50: 14.1 µM
  TGI: > 32.5 µM
  CC50: > 32.5 µM
NCI-H522
  GI50: 4.43 µM
  TGI: 12.5 µM
  CC50: > 32.5 µM
SK-MEL-2
  GI50: 8.83 µM
  TGI: 21.1 µM
  CC50: > 32.5 µM
HOP-92
  GI50: 2.85 µM
  LC50: > 32.5 µM
  TGI: 16.7 µM
MDA-MB-435
  GI50: 6.99 µM
  TGI: > 32.5 µM
  CC50: > 32.5 µM
NCI-H23
  GI50: 6.97 µM
  TGI: 19.6 µM
  CC50: > 32.5 µM
Malme-3M
  GI50: 8.6 µM
  TGI: 26 µM
  CC50: > 32.5 µM
